Experimental data published in patent US4355179A, “Radioactive nuclide labeled propiophenone compounds” (Burroughs Wellcome Co., priority 1980, dated 1982).

Legend:
[1] = tested on: antisera raised by a bupropion variant-carrier material conjugate; test: Competition with radiolabeled bupropion or radiolabeled competitor for binding to antisera; settings: against radiolabeled bupropion or radiolabeled competitor
[2] = tested on: anti-compound 2 sera, anti-compound 3 sera; test: RIA of bupropion using 125I-labeled competitors with anti-compound 2 sera and anti-compound 3 sera; format: binding; settings: with anti-compound 2 or anti-compound 3 sera
Method: (§1) Samples of six standard solutions of bupropion in blank plasma having concentrations of 0.39 to 50 ng/ml) are pipetted (0.1 ml each) in duplicate into 12×75 mm plastic tubes. Duplicate non-specific binding (no antibody) and maximum binding tubes (no unlabeled bupropion) receive 0.1 ml blank plasma. Spiked plasma controls at several concentrations of (e.g., 1.0, 10.0, and 100 ng/ml) and plasma samples for assay (diluted into the standard range with blank plasma if necessary) are assayed in duplicate. After being placed in an ice bath, all tubes receive (in order) 0.2 ml ^3 H bupropion (416 pg. containing approximately 10^4 cpm) and 0.7 ml anti-bupropion serum (raised to a ring-functionalized immunogen according to the present invention) (at pre-determined dilutions such that approximately 40% of the ^3 H bupropion added is bound), both in assay buffer (0.05 M phosphate-bufferedisotonic saline, containing 0.01 M EDTA and 0.1% gelatin, pH 7.0). Non-specific binding tubes receive 0.7 ml assay buffer.) Following incubation either at 25° C. for 2 hours or overnight at 4° C., bound and free ^3 H bupropion are separated by incubation for 10 min at 0° C. with 0.5 ml ice-cold dextran-coated charcoal solution (0.25% dextran, 5 mg/ml charcoal, in assay buffer) followed by centrifugation for 10 minutes at 4° C. […] The supernatants, containing antibody-bound ^3 H bupropion are carefully decanted into liquid scintillation cocktail for quantitation of ^3 H. After counts (minus average non-specific binding cpm) are expressed as percentages of average maximum binding cpm, bupropion concentrations in plasma samples and spiked controls are read from a standard curve (log concentration vs percent average maximum binding).
RIA's have been run according to the method of Example X utilizing ^125 I labeled bupropion competitors of the present invention in conjunction with antisera obtained following immunization with immunogens of the present invention. […] Following the ethanol precipitation of antibody-bound ^125 I-bupropion competitor at equilibrium, ^125 I in the protein pellets was quantified.

[3] = tested on: anti-compound 1 sera; test: RIA of bupropion using 125I-labeled competitor with anti-compound 1 sera; format: binding; settings: compound 6 with anti-compound 1 sera, compared with the other RIA's
Method: as §1, with “7.0).” for “7.0). Non-specific binding tubes receive 0.7 ml assay buffer.) Following incubation either at 25° C. for 2 hours or overnight at 4° C., bound and free ^3 H bupropion are separated by incubation for 10 min at 0° C. with 0.5 ml ice-cold dextran-coated charcoal solution (0.25% dextran, 5 mg/ml charcoal, in assay buffer) followed by centrifugation for 10 minutes at 4° C.”, “binding). […]” for “binding).”

CC(NC(C)(C)C)C(=O)c1cccc(Cl)c1 (racemic) [bupropion, (±)-2-tert-butylamino-3'-chloropropiophenone]
competition for binding to antisera [1]: successfully compete

CC(NC(C)(C)C)C(=O)c1ccc(OCC(=O)NCCc2ccc(O)c([125I])c2)c(Cl)c1 (stereo not drawn) [Compound 7, α-t-Butylamino-3-chloro-4-carbomethoxypropiophenone-^125 I-tyramine amide]
RIA sensitivity relative to the compound 10 (3H bupropion) assay system [2]: approximately equal

CC(NC(C)(C)C)C(=O)c1ccc(CCCOC(=O)CCC(=O)NCCc2ccc(O)c([125I])c2)c(Cl)c1 (stereo not drawn) [Compound 8, α-t-butylamino-3-chloro-4-γ-hydroxypropylpropiophenonehemisuccinate-^125 I-tyramine amide]
RIA sensitivity relative to the compound 10 (3H bupropion) assay system [2]: approximately equal

CC(NC(C)(C)C)C(=NOCC(=O)NCCc1ccc(O)c([125I])c1)c1cccc(Cl)c1 (stereo not drawn) [Compound 6, α-t-Butylamino-3-chloropropiophenone-carboxymethyloxime-^125 I-tyramine amide]
RIA sensitivity [3]: least sensitive

CC(NC(C)(C)C)C(=O)c1ccc(O)c([125I])c1 (stereo not drawn) [Compound 9, ^125 I-α-t-Butylamino-3-iodo-4-hydroxypropiophenone]
RIA sensitivity relative to the compound 10 (3H bupropion) assay system [2]: approximately ten times more sensitive
